# Patent EP1001774B1, “USE OF PHOSPHOLAMBAN INHIBITORS FOR INCREASING CORONARY FLOW” (ORION CORPORATION, priority 1997, dated 1999)
# Legend:
# [1] = system: coronary arteries; assay: Coronary flow in isolated paced heart (Langendorff, constant pressure); design: species or system guinea-pig; details: Cavia porcellus; for Emax at 30 µM / Emax at 10 µM / Emax at 3 µM: read-out: Maximum effect (% change from baseline) on the coronary flow; for EC50: isolated heart, constant pressure 50 mmHg, paced at 250 beats/min
# Procedure: Guinea-pigs of either sex weighing 300-400 g were used in the study. After the guinea-pig was sacrificed by a blow on the skull and decapitated the heart was rapidly excised. The heart was then rinsed in cold oxygenated perfusion buffer. A cannula was inserted into the aorta and secured with a ligature. Retrograde perfusion began as soon as the heart was placed in a thermostatically controlled moist chamber of the Langendorff apparatus. Modified Tyrode solution (37 °C), equilibrated in a thermostatically controlled bulb oxygenator with carbogen (95 % O2 and 5% CO2) was used as a perfusion buffer. The composition of the Tyrode solution was (in mM): NaCl 135; MgCl2 x 6H2O 1; KCl 5; CaCl2 x 2H2O 2; NaHCO3 15; Na2HPO4 x 2H2O 1; glucose 10; pH 7.3-7.4. The experiments were carried out under constant pressure condition (50 mmHg). After a short prestabilization (10 min) a latex balloon (size 4) was carefully placed into the left ventricle through the left pulmonary vein and the left atrium. The latex balloon was attached to a stainless-steel cannula coupled with a pressure transducer. The latex balloon, the cannula and the chamber of the pressure transducer were filled with ethylene glycol / water (1:1) mixture avoiding any air-bubble. The isovolumetric left ventricular pressure was recorded through the pressure transducer. The maximal positive and negative derivatives of the left ventricular pressure were calculated by using the digitized pressure signals. At the beginning of the experiment, the volume of the balloon was adjusted to obtain a diastolic pressure of approximately 5 mmHg. Coronary flow (ml/min) was continuously recorded by an electromagnetic flow meter with a flow probe inserted above the aortic cannula. The heart was paced at 250 beats/min with a coaxial electrode localized on the surface of the right atrium. Before starting the experiment, the heart was allowed to stabilise further for 30 - 50 min with vehicle (0.1% DMSO) to reach a stable coronary flow.
# After 15 min baseline recording various concentrations of the test compound of Example 1c were added to the perfusion buffer at 15 min intervals. The concentration range of 0.3 - 30 µM was tested. The vehicle concentration (0.1% DMSO) was kept constant throughout the experiment.
# [2] = biological target: T1, phospholamban (Cavia porcellus, UniProt A0A286XLC6); assay: Calcium uptake assay (fluo-3) in SR vesicles from cardiac tissue; format: biochemical, guinea-pig; details: vesicles from ventricular myocardium, 0.1 µM free calcium, read-out: The stimulation (%) of Ca^2+ uptake A; for activation at 10 µM: 10 µM compound; for activation at 100 µM: 100 µM compound
# T1 construct: calcium uptake into the SR vesicles prepared from cardiac tissue; from tissue; host or cells: guinea-pig heart (ventricular myocardium), SR vesicle preparation
# T1 sequence (A0A286XLC6 1-52): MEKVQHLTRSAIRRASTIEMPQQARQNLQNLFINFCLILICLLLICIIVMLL
# Source text: (§1) The direct binding of a compound to the phospholamban protein can be ascertained by the circular dichroism (CD) spectroscopy. The methods for determining whether a compound relieves the inhibitory effect of phospholamban on SR Ca^2+-ATPase by direct binding to the phospholamban protein, i.e. is a phospholamban inhibitor, are illustrated in detail in the experimental section.
# (§2) The effect on phospholamban of the compounds used in the invention was verified by measuring its effects on calcium uptake into the SR vesicles prepared from cardiac tissue and into vesicles prepared from fast skeletal muscle (psoas m.). […] The methods are described below in detail.
# (§3) Guinea pigs (10-12) were decapited. Their hearts or the psoas muscles were excised, washed in ice-cold 0.9 % NaCl and cut into pieces in a buffer containing 20 mM Tris-maleate, 0.3 M sucrose, pH 7.0. Thereafter tissue pieces were homogenized with Polytron and further with Potter (10 strokes). The homogenate was centrifugated at 1000 g for 15 min at 4 °C. The supernatant was collected and the pellet was resuspended into 5 ml of the buffer (20 mM Tris-maleate, 0.3 M sucrose, pH 7.0) and recentrifugated at 1000 g for 10 min at 4 °C. The obtained supernatant was combined with the earlier collected supernatant and centrifugated once again at 10 000 g for 20 min at 4 °C. The final supernatant was filtered into a bottle equipped with a magnetic stirrer. KCl was added to the filtered supernatant to achieve the final concentration of 0.6 M (at 4 °C). The obtained solution was centrifugated at 100 000 g for 60 min at 4 °C. The pellet was suspended in 5 ml of the buffer containing 20 mM Tris-maleate, 0.3 M sucrose, pH 7.0 and centrifugated at 100 000 g for 60 min at 4 °C. The obtained pellet was suspended in 5 ml of buffer containing 20 mM Tris-maleate, 0.3 M sucrose, 0.1 M KCI, pH 7.0 and stored at -80 °C until use. The protein concentration was also measured in order to standardise the separately prepared vesicle preparations.
# (§4) In the calcium uptake assay, the fluorescent indicator, fluo-3 was used to detect the decrease of the extravesicular Ca^2+-concentration, when the SR Ca^2+ATPase was transferring Ca^2+ from the extravesicular space into the SR-vesicles.
# (§5) The SR-vesicles obtained above (50 µg protein/ml) were preincubated with or without the test compound at 37 °C for 5 min in the assay buffer containing 40 mM imidazole, 95 mM KCI, 5 mM NaN3, 5 mM MgCl2, 0.5 mM EGTA, 5 mM potassium oxalate, 2 µM ruthenium red, 5 µM fluo-3, pH 7.0. The free calcium was adjusted to 0.1 µM or to 0.04 µM by CaCl2. The reaction was initiated by adding ATP (5 mM). The final reaction volume was 1.5 ml. The fluorescence of reaction mixture was measured for 3 min by using the excitation and emission wavelengths of 510 nm and 530 nm, respectively.
# [3] = system: SR Ca^2+-ATPase; assay: Calcium uptake assay (fluo-3) in SR vesicles from fast skeletal muscle (psoas m.), which contain no phospholamban; format: biochemical, guinea-pig; details: vesicles from fast skeletal muscle, 0.04 µM free calcium
# Source text: as §1, §2, §3, §4, §5
Compound,EC50 [1] [µM],activation at 100 µM [2] [%],Emax at 30 µM [1] [%],Emax at 10 µM [1] [%],also measured
"O=c1cc(-c2ccccc2)c2c(OCc3nnn[nH]3)cc(OCc3nnn[nH]3)cc2o1 [Example 5c, 5,7-Bis[(1H-tetrazol-5-yl)methoxy]-4-phenyl-2H-1-benzopyran-2-one]",> 10,–,52,–,–
Cc1c(Cc2ccccc2)c(=O)n(Cc2ccc(F)cc2)c2cc(OCc3nnn[nH]3)cc(OCc3nnn[nH]3)c12 [Example 13d],6,–,104,–,activation at 50 µM ([2]; 50 µM compound): 23%
"Cc1cc(=O)n(Cc2ccccc2)c2cc(OCc3nnn[nH]3)cc(OCc3nnn[nH]3)c12 [Example 18e, 1-Benzyl-5,7-bis-[(1H-tetrazol-5-yl)methoxy]-4-methyl-2(1H)-quinolinone]",5,13,69,–,–
"O=c1oc2cc(OCc3nnn[nH]3)cc(OCc3nnn[nH]3)c2c2c1C(c1ccccc1)CCC2 (centres unmarked) [Example 2c, 7,8,9,10-Tetrahydro-1,3-bis[(1H -tetrazol-5-yl)methoxy]-7-phenyl-6H-dibenzo[b,d]pyran-6-one]",–,26,–,–,The stimulation (%) of Ca^2+ uptake B ([3]; 100 µM compound): -1%
"Cc1c(Cc2ccccc2)c(=O)n(Cc2ccccc2)c2cc(OCC(=O)O)cc(OCC(=O)O)c12 [Example 12, 5,7-Bis(carboxymethoxy)-1,3-dibenzyl-4-methyl-2(1H)-quinolinone]",5,32,–,60,–
"Cc1c(Cc2ccccc2)c(=O)oc2cc(OCc3noc(=O)[nH]3)cc(OCc3noc(=O)[nH]3)c12 [Example 3c, 3-Benzyl-5,7-bis[(2,5-dihydro-5-oxo-4H-1,2,4-oxadiazol-3-yl)-methoxy]-4-methyl-2H-1-benzopyran-2-one]",5,–,174,–,activation at 20 µM ([2]; 20 µM compound): 51%; The stimulation (%) of Ca^2+ uptake B ([3]; 20 µM compound): 0%

# Continued, in another order:
EC50 [1] [µM],activation at 100 µM [2] [%],Compound,Emax at 30 µM [1] [%],Emax at 10 µM [1] [%],also measured
1,–,"Cc1c(Cc2ccccc2)c(=O)n(Cc2ccccc2)c2cc(OCc3nnn[nH]3)cc(OCc3nnn[nH]3)c12 [Example 8g, 5,7-Bis[(1H-tetrazol-5-yl)methoxy]-1,3-dibenzyl-4-methyl-2(1H)-quinolinone]",–,100,activation at 10 µM [2]: 18%; The stimulation (%) of Ca^2+ uptake B ([3]; 10 µM compound): 0%
2,11,"Cc1c(Cc2ccccc2)c(=O)n(Cc2ccccc2)c2cc(OCC(N)=O)cc(OCC(N)=O)c12 [Example 21, 5,7-Bis(aminocarbonylmethoxy)-1,3-dibenzyl-4-methyl-2(1H)-quinolinone]",–,141,–
1,28,"Cc1c(Cc2ccccc2)c(=O)oc2cc(OC(C)c3nnn[nH]3)cc(OC(C)c3nnn[nH]3)c12 (centres unmarked) [Example 11b, 3-Benzyl-5,7-bis[1-(1H-tetrazol-5-yl)ethoxy]4-methyl-2 H-1-benzopyran-2-one]",–,–,Emax at 3 µM [1]: 38%
0.9,–,"Cc1c(Cc2ccccc2)c(=O)n(Cc2ccccc2)c2cc(OCC(=O)NO)cc(OCC(=O)NO)c12 [Example 23, 5,7-Bis(hydroxyaminocarbonylmethoxy)-1,3-dibenzyl-4-methyl-2(1H)-quinolinone]",–,–,activation at 5 µM ([2]; 5 µM compound): 20%; Emax at 3 µM [1]: 55%
1.5,–,"Cc1c(Cc2ccc(Cl)cc2)c(=O)oc2cc(OCc3nnn[nH]3)cc(OCc3nnn[nH]3)c12 [Example 14c, 5,7-Bis[(1H-tetrazol-5-yl)methoxy]-3-(4-chlorobenzyl)-4-methyl-2H-1-benzopyran-2-one]",–,112,activation at 10 µM [2]: 18%
–,5,"Cc1c(CCc2ccccc2)c(=O)oc2cc(OCc3nnn[nH]3)cc(OCc3nnn[nH]3)c12 [Example 7c, 5,7-Bis[(1H-tetrazol-5-yl)methoxy]-4-methyl-3-(2-phenylethyl)-2H-1benzopyran-2-one]",–,–,The stimulation (%) of Ca^2+ uptake B ([3]; 100 µM compound): -17%
